Values belong to the compound of their own block, whether it stands above or below them.
Test: solvent given as SMILES

absorption maximum (in CC#N): 337 nm
SMILES: Brc1ccc(-c2pc3ccccc3s2)cc1 (centres undefined)

absorption maximum (in C1CCCCC1): 295 nm
SMILES: c1cc(-c2ccc3c(c2)CCCO3)ccc1-c1ccc2c(c1)CCCO2

absorption maximum (in CC1CCCO1): 631 nm
SMILES: CC1=CC(/C=C/c2ccc(C)cc2)=[N+]2C1=C(c1ccccc1)c1c(C)cc(/C=C/c3ccc(C)cc3)n1[B-]2(F)F

absorption maximum (in ClCCl): 726 nm
SMILES: CC(C)(C)c1cc(-c2c3cc(c(-c4cc(C(C)(C)C)cc(C(C)(C)C)c4)c4ccc([nH]4)c(-c4ccc(Br)cc4)c4nc(c(-c5ccc(Br)cc5)c5ccc2[nH]5)C=C4)N=C3)cc(C(C)(C)C)c1

absorption maximum (in CCCCCC): 435 nm
absorption maximum (in ClCCl): 435 nm
SMILES: CC(C)[Si](C#Cc1ccc(C#C[Si](C(C)C)(C(C)C)C(C)C)c2nc3cc4c(cc3nc12)[C@H]1c2ccccc2[C@@H]4c2ccccc21)(C(C)C)C(C)C

absorption maximum (in C1CCOC1): 337 nm
SMILES: O=C1c2cc(-c3ccccc3)ccc2-c2ccc(-c3ccccc3)cc21

absorption maximum (in CC#N): 317 nm
SMILES: C[n+]1ccc(/C=C/c2cc[n+](C)cc2)cc1

absorption maximum (in ClCCl): 470 nm
SMILES: CCCc1ccc(C#Cc2cc(C#Cc3ccc(CCC)cc3)c3ccc4c(C#Cc5ccc(CCC)cc5)cc(C#Cc5ccc(CCC)cc5)c5ccc2c3c54)cc1

absorption maximum (in CO): 583.65 nm
SMILES: c1cc2c(C3SCCCS3)c3ccc(=[N+]4CCCCC4)cc-3oc2cc1N1CCCCC1

absorption maximum (in C1CCCCC1): 281 nm
SMILES: CCCCCCCCOc1ccc(C2=C(c3ccc(OCCCCCCCC)cc3)C(C)(C)c3ccccc32)cc1

absorption maximum (in CCCCCC): 558 nm
absorption maximum (in ClCCl): 562 nm
SMILES: CC(C)[Si](C#Cc1c2ccccc2c(C#C[Si](C(C)C)(C(C)C)C(C)C)c2nc3cc4c(cc3nc12)C1c2ccccc2C4c2ccccc21)(C(C)C)C(C)C

absorption maximum (in CCCCCC): 551 nm
SMILES: CC(C)[Si](C#Cc1c2nc3c(nc2c(C#C[Si](C(C)C)(C(C)C)C(C)C)c2nc4ccccc4nc12)C1c2ccccc2C3c2ccccc21)(C(C)C)C(C)C

absorption maximum (in ClCCl): 448 nm
SMILES: CCCCN(CCCC)c1ccc(C#Cc2cc(C#Cc3ccc([N+](=O)[O-])cc3)c(C#Cc3ccc(N(CCCC)CCCC)cc3)cc2C#Cc2ccc([N+](=O)[O-])cc2)cc1

absorption maximum (in C1CCCCC1): 410.54 nm
SMILES: CC(C)c1cc(C(C)C)c(B2c3cc(-n4c5ccc(C(C)(C)C)cc5c5cc(C(C)(C)C)ccc54)ccc3N(c3ccccc3)c3ccc(-n4c5ccc(C(C)(C)C)cc5c5cc(C(C)(C)C)ccc54)cc32)c(C(C)C)c1

absorption maximum (in CCO): 381 nm
absorption maximum (in ClCCl): 384 nm
SMILES: O=Cc1cnc(-c2c3ccccc3cc3ccccc23)nc1

absorption maximum (in CS(C)=O): 316 nm
SMILES: c1ccc2[nH]c(-c3cc(-c4nc5ccccc5[nH]4)cc(-c4nc5ccccc5[nH]4)c3)nc2c1

absorption maximum (in C1CCOC1): 565 nm
SMILES: FC(F)(F)C(F)(F)C(F)(F)C1=NC2=C(Sc3ccccc3)C=C3c4cc(Sc5ccccc5)c5nc(C(F)(F)C(F)(F)C(F)(F)F)nc6c(Sc7ccccc7)cc(c4c56)=C4C=C(Sc5ccccc5)C(=N1)C2C34 (centres undefined)

Continued, compound first:

SMILES: Oc1ccc(-c2nc(-c3ccccc3)c(-c3ccccc3)[nH]2)cc1
absorption maximum (in CO): 295 nm

SMILES: COc1ccc2c(c1)c1cc(OC)ccc1n2-c1ccc2c(c1)-c1cc(-n3c4ccc(OC)cc4c4cc(OC)ccc43)ccc1P2(=O)c1ccccc1
absorption maximum (in Cc1ccccc1): 369 nm

SMILES: CCCCCCCN1C(=CC2=C([O-])C(=CC3=[N+](CCCCCCC)c4ccccc4C3(C)C)C2=C(C#N)C#N)C(C)(C)c2ccccc21
absorption maximum (in C1COCCO1): 689 nm
absorption maximum (in CCO): 673 nm
absorption maximum (in CN(C)C=O): 681 nm
absorption maximum (in ClC(Cl)Cl): 685 nm

SMILES: CCCC1=Cc2nc1ccc1[nH]c(cc1CCC)c1nc(ccc3[nH]c2cc3CCC)C(CCC)=C1
absorption maximum (in Cc1ccccc1): 667 nm

SMILES: Cc1cc(N2c3ccccc3C3(c4ccccc4-c4ccccc43)c3ccccc32)c(C)cc1-c1nc(-c2ccccc2)nc(-c2ccccc2)n1
absorption maximum (in Cc1ccccc1): 382.89 nm

SMILES: CCCCN(CCCC)c1ccc(C#Cc2cc(C#Cc3ccc(N(CCCC)CCCC)cc3)c(C#Cc3c(F)c(F)c(F)c(F)c3F)cc2C#Cc2c(F)c(F)c(F)c(F)c2F)cc1
absorption maximum (in ClCCl): 438 nm

SMILES: COc1c2ccccc2c(OC)c2c1c1c(F)cccc1n2C
absorption maximum (in C1CCCCC1): 403 nm
absorption maximum (in CC#N): 405 nm
absorption maximum (in CO): 404 nm
absorption maximum (in ClCCl): 406 nm

SMILES: N#Cc1c(-n2c3ccccc3c3cc(Br)ccc32)c(-n2c3ccccc3c3cc(Br)ccc32)c(C#N)c(-n2c3ccccc3c3cc(Br)ccc32)c1-n1c2ccccc2c2cc(Br)ccc21
absorption maximum (in Cc1ccccc1): 337 nm

SMILES: CC(C)(C)c1ccc2oc3nc4oc5ccc(-n6c7ccc(C(C)(C)C)cc7c7cc(C(C)(C)C)ccc76)cc5c4cc3c2c1
absorption maximum (in ClC(Cl)Cl): 346 nm

SMILES: Cc1ccc(/N=C2\N=C(N)c3cccc4cccc2c34)cc1
absorption maximum (in ClCCl): 349 nm

SMILES: O=c1cc2c(-c3c(O)c4cccc5ccc6oc(=O)cc3c6c54)c(O)c3cccc4ccc(o1)c2c43
absorption maximum (in CC1CCCO1): 486 nm

SMILES: C(=C\c1ccccn1)/c1ccc(N(c2ccc(/C=C/c3ccccn3)cc2)c2ccc(-c3nc4ccccc4nc3-c3ccc(N(c4ccc(/C=C/c5ccccn5)cc4)c4ccc(/C=C/c5ccccn5)cc4)cc3)cc2)cc1
absorption maximum (in C1CCOC1): 383 nm
absorption maximum (in Cc1ccccc1): 378 nm

SMILES: COc1c2ccccc2c(-c2ccccc2)c2ccccc12
absorption maximum (in C1COCCO1): 378 nm
absorption maximum (in CCCCCC): 378 nm
absorption maximum (in CCCCCCC): 376 nm
absorption maximum (in CCCCO): 378 nm
absorption maximum (in CCO): 378 nm
absorption maximum (in CN(C)C=O): 378 nm
absorption maximum (in Cc1ccccc1): 378 nm
absorption maximum (in ClC(Cl)(Cl)Cl): 376 nm
absorption maximum (in ClC(Cl)Cl): 378 nm
absorption maximum (in ClCCl): 378 nm
absorption maximum (in OCC(O)CO): 378 nm
absorption maximum (in OCCO): 379 nm

SMILES: CCN(CC)c1ccc2c(C#N)c(/C=C(\C#N)c3nc4ccccc4s3)c(=O)oc2c1
absorption maximum (in C1COCCO1): 561 nm
absorption maximum (in CC#N): 597 nm
absorption maximum (in CCO): 602 nm
absorption maximum (in CCOC(C)=O): 568 nm
absorption maximum (in CN(C)C=O): 525 nm
absorption maximum (in CO): 591 nm
absorption maximum (in CS(C)=O): 531 nm
absorption maximum (in Cc1ccccc1): 560 nm
absorption maximum (in ClCCl): 611 nm

SMILES: N#Cc1c(-n2nnc3cc(Cl)ccc32)n([C@H]2C[C@H](O)[C@@H](CO)O2)c2ncnc(N)c12
absorption maximum (in CO): 276 nm

SMILES: C[N+]1=C(/C=C/C2=C3Oc4c(cc5c6c4CCCN6CCC5)C(c4ccccc4C(=O)O)=C3CCC2)C(C)(C)c2c1ccc1ccccc21
absorption maximum (in CC#N): 742 nm
absorption maximum (in CCO): 728 nm
absorption maximum (in CO): 730 nm
absorption maximum (in ClC(Cl)Cl): 746 nm

SMILES: FC(F)(F)c1ccc(B2c3ccccc3Nc3ccccc32)c(C(F)(F)F)c1
absorption maximum (in ClCCl): 388 nm

SMILES: N#Cc1cccc(-c2pc3ccccc3s2)c1 (centres undefined)
absorption maximum (in CC#N): 324 nm

SMILES: O=P1(c2ccccc2)c2cc(N3c4ccccc4Oc4ccccc43)ccc2-c2ccc(N3c4ccccc4Oc4ccccc43)cc21
absorption maximum (in Cc1ccccc1): 418 nm

SMILES: COc1cc2c(cc1OC)C1=C3C(=O)N4C=Cc5cc(OC)c(OC)cc5C4=C3C(=O)N1C=C2
absorption maximum (in CN(C)C=O): 593 nm
absorption maximum (in ClC(Cl)Cl): 593 nm

SMILES: COc1ccc2c3c(c4ccc(C(C)(C)C)cc4c2c1)=C(c1cc(OC)c(OC)c(OC)c1)C1=Nc2c(-c4cc(OC)c(OC)c(OC)c4)c4c5ccc(C(C)(C)C)cc5c5cc(OC)ccc5c4n2[B-](F)(F)[N+]=31
absorption maximum (in Cc1ccccc1): 797 nm

SMILES: CC[n+]1nc2cc3c4c(c2c2ccccc21)CCCN4CCC3
absorption maximum (in O): 493 nm

SMILES: O=C(c1sc(-c2ccc(-c3cc(-c4cccs4)c(C(=O)N4CCOCC4)s3)s2)cc1-c1cccs1)N1CCOCC1
absorption maximum (in ClCCl): 379 nm

SMILES: CN(C)c1ccc(-c2nc3nccnc3n2-c2ccc(N(C)C)cc2)cc1
absorption maximum (in CC#N): 371 nm
